In ChEMBL document CHEMBL5465560, “Selectivity Literature for EUbOPEN Chemogenomic Library” (2024):
Values belong to the compound of their own block, whether it stands above or below them.

What was measured:
[1] = molecular target: T1, Cyclin-dependent kinase 11A (Homo sapiens) (UniProt Q9UQ88); assay: Selectivity interaction (ActivX KiNativ screen (kinase selectivity in THP-1 cell lysates)) EUB0000639a CDK11A; type: subcellular; conditions: lysate
T1 sequence (whole entry): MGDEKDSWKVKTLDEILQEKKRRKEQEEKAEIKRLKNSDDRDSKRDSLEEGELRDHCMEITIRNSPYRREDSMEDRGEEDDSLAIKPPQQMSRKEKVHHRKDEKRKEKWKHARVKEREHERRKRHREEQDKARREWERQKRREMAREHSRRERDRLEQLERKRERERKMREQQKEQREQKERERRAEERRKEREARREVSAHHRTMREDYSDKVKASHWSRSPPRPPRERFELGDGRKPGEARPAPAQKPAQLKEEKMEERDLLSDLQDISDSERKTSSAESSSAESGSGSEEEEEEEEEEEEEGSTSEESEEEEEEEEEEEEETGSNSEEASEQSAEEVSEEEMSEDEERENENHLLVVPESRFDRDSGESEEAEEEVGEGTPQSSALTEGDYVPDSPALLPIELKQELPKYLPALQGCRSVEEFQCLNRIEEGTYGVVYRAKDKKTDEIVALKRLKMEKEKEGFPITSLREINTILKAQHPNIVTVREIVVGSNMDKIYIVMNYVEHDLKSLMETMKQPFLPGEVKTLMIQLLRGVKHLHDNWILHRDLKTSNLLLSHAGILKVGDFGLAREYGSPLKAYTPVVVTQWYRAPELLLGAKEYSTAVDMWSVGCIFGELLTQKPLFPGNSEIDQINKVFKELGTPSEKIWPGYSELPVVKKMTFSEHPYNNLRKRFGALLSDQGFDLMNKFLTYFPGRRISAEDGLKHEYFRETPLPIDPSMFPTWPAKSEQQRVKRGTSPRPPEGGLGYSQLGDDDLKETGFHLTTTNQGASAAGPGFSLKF

[2] = molecular target: T2, Ribosomal protein S6 kinase alpha-3 (Homo sapiens, UniProt P51812); assay: Selectivity interaction (Kinase panel (Invitrogen)) EUB0000639a RPS6KA3; conditions: at 200 nM
T2 sequence (P51812 whole entry): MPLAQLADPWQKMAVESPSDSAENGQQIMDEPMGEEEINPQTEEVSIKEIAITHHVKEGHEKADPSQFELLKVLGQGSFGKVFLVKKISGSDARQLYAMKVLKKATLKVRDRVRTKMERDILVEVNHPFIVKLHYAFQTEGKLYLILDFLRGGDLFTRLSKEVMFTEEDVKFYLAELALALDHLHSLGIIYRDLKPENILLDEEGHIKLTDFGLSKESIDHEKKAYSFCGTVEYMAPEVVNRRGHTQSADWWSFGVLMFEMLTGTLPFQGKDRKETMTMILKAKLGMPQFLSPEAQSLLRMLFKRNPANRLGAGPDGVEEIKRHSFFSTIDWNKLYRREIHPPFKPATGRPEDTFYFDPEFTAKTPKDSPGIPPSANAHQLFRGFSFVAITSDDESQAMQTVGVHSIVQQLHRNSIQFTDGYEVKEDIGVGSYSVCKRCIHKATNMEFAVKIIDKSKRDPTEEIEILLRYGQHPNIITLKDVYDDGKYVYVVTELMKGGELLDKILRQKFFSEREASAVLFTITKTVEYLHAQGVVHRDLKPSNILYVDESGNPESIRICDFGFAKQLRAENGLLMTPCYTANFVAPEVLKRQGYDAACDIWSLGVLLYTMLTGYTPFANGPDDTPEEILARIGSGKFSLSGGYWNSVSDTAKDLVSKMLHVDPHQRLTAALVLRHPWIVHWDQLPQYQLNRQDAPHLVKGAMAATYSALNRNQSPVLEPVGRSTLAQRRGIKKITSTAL

[3] = molecular target: T2, Ribosomal protein S6 kinase alpha-3; assay: Selectivity interaction (ActivX KiNativ screen (kinase selectivity in THP-1 cell lysates)) EUB0000639a RPS6KA3; type: subcellular; conditions: lysate, at 1 µM
[4] = molecular target: T3, Serine/threonine-protein kinase DCLK2 (Homo sapiens) (UniProt Q8N568); conditions: at 10 µM
T3 sequence (whole entry): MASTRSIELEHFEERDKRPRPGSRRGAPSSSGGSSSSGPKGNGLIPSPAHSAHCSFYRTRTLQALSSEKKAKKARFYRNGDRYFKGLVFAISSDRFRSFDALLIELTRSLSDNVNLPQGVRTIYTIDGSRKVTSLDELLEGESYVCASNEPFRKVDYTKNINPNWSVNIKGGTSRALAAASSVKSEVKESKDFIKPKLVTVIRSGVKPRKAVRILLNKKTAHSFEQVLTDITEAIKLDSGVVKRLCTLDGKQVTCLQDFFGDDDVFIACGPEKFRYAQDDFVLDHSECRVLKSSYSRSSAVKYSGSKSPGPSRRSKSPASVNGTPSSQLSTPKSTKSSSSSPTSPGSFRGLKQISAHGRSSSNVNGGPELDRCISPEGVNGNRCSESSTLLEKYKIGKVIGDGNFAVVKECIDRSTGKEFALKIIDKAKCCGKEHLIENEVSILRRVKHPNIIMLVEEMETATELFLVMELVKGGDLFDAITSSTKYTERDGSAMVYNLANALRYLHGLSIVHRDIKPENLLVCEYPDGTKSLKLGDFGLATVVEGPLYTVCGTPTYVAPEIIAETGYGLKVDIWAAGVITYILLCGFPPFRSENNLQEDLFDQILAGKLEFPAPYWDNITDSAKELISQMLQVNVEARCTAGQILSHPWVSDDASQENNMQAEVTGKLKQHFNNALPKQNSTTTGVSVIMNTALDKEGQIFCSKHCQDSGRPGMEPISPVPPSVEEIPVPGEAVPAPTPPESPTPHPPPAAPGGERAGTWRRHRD

Activated CDC42 kinase 1 = Activated CDC42 kinase 1 (Homo sapiens, UniProt Q07912); assay: Selectivity interaction (KinomeScan (DiscoverX)) EUB0000655a TNK2; conditions: at 10 µM
Activated CDC42 kinase 1, sequence (Q07912 whole entry, looked up): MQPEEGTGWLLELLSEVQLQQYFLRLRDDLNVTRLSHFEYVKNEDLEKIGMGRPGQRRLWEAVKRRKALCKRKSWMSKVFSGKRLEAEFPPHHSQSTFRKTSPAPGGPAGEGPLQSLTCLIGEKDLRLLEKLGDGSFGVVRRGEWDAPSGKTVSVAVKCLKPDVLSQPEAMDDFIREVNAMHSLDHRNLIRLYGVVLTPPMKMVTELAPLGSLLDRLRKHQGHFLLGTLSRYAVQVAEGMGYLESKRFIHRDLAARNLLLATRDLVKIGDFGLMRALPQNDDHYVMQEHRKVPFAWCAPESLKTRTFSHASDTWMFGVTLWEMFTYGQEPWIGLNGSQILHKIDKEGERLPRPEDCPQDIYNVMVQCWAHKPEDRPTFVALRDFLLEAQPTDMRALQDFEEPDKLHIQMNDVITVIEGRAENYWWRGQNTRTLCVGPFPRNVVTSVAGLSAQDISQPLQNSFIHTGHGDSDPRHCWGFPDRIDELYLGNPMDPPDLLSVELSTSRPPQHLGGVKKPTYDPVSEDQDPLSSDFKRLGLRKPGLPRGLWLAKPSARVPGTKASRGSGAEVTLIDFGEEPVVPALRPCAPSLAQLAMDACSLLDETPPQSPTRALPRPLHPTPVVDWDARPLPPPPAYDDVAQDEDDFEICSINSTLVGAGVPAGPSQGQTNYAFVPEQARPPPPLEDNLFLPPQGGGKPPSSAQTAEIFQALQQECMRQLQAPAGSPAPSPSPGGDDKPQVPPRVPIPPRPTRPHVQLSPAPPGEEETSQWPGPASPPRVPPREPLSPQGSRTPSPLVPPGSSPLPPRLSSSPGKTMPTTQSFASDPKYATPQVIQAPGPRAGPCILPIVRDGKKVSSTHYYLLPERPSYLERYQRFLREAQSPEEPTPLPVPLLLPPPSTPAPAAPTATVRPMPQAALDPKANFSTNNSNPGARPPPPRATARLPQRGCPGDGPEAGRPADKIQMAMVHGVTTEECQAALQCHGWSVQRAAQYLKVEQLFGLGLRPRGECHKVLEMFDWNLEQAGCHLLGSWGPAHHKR

[5] = molecular target: Serine/threonine-protein kinase B-raf (Homo sapiens) (UniProt P15056); assay: Selectivity interaction (SelectScreen profiling (Invitrogen)) EUB0000607a BRAF; conditions: at 2 µM
Serine/threonine-protein kinase B-raf (Homo sapiens), sequence (P15056 whole entry): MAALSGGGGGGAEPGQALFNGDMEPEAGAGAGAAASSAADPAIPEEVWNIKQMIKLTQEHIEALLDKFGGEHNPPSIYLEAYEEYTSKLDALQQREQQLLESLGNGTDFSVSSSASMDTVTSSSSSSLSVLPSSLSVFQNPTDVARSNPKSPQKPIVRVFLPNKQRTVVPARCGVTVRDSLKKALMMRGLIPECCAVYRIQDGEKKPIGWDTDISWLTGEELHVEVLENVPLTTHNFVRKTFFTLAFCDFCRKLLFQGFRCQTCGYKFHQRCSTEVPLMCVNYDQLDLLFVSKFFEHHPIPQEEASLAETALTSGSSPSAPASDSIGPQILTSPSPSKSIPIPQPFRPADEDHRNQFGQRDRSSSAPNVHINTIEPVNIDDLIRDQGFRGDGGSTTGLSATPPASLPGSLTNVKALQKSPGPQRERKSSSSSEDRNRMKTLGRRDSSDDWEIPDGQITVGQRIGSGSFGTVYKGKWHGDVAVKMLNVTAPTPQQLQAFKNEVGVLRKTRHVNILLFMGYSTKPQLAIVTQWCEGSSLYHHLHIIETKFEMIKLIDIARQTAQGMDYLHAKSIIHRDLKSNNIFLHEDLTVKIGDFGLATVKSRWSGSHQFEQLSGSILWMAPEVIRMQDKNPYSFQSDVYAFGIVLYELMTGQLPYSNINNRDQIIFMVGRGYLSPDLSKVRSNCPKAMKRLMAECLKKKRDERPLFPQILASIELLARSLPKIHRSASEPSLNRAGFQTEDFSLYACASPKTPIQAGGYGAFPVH

[6] = molecular target: T4, Serine/threonine-protein kinase ICK (Homo sapiens) (UniProt Q9UPZ9); assay: Selectivity interaction (KinomeScan (DiscoverX)) EUB0000607a ICK; conditions: at 10 µM
T4 sequence (whole entry): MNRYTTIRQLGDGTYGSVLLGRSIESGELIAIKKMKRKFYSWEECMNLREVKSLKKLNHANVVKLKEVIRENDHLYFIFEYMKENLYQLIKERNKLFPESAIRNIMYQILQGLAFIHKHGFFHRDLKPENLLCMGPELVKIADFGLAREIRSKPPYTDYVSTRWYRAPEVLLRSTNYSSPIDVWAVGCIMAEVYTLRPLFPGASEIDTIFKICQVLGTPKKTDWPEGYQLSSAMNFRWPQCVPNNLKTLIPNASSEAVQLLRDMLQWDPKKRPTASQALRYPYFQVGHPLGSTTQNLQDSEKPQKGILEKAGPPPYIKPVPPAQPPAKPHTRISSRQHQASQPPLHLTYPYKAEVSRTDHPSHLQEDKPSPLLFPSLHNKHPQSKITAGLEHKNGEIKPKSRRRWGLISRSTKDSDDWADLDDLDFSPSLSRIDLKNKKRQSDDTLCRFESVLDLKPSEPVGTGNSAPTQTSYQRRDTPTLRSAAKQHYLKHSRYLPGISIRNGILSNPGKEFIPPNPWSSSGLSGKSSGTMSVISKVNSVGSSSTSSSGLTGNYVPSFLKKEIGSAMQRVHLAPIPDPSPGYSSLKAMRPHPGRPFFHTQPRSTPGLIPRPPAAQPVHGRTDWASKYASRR

% of inhibition ([1]; at 0.01 µM): 10.4%
% of inhibition ([1]; at 0.04 µM): -11.1%
% of inhibition ([1]; at 0.2 µM): 2.6%
% of inhibition ([1]; at 1 µM): 7.8%
% of inhibition ([1]; at 5 µM): 18.7%
% of inhibition [2]: -6.31%
% of inhibition [3]: 0.1%
SMILES: CC[C@@H]1[C@H](F)C(=O)N[C@@H]1COc1nccc2cc(C(N)=O)c(OC)cc12 [ZIMLOVISERTIB]

SMILES: COCC(=O)NC/C=C/c1ccc2ncnc(Nc3ccc(Oc4ccc(C)nc4)c(C)c3)c2c1 [CP-724714]
% of control [4]: 100%

SMILES: CN(C)CCOc1ccc(-c2nc(-c3ccncc3)c(-c3ccc4c(c3)CC/C4=N\O)[nH]2)cc1
% of control (Activated CDC42 kinase 1): 100%

SMILES: CNC(=O)Nc1ccc(-c2nc(N3CC4CCC(C3)O4)c3cnn(C4CCC5(CC4)OCCO5)c3n2)cc1
% of inhibition [5]: 6%
% of control [6]: 87%
